Structures are written as SMILES.

The values below come from ChEMBL document CHEMBL1177878, “Synthesis and hypolipidemic activity of novel 2-(4-(2-substituted aminothiazole-4-yl) phenoxy) acetic acid derivatives” (Eur J Med Chem, 2010).

In data set [1] the test system is Rattus norvegicus. Briefly: Antihyperlipidemic activity in high fat diet-induced hyperlipidemic Sprague-Dawley rat model assessed as reduction of blood triglyceride level at 50 mg/kg, po for 7 days (reference value: 142.4 +/- 1.53 mg/dl). Type of data set: functional.
For data set [2], the system named is Rattus norvegicus. Briefly: Antihyperlipidemic activity in high fat diet-induced hyperlipidemic Sprague-Dawley rat model assessed as reduction of blood cholesterol level at 50 mg/kg, po for 7 days (reference value: 128.8 +/- 1.20 mg/dl). It counts as functional.
In data set [3] the test system is Rattus norvegicus. Briefly: Antihyperlipidemic activity in high fat diet-induced hyperlipidemic Sprague-Dawley rat model assessed as reduction of body weight at 50 mg/kg, po for 7 days. It counts as functional.
Data set [4] deals with Rattus norvegicus. In words: Antihyperlipidemic activity in high fat diet-induced hyperlipidemic Sprague-Dawley rat model assessed as reduction of body circumference at 50 mg/kg, po for 7 days. It counts as functional.
The test system of data set [5] is Rattus norvegicus. In words: Toxicity in high fat diet-induced hyperlipidemic Sprague-Dawley rat model assessed as increase of locomotor activity at 50 mg/kg, po for 7 days measured for 5 mins. Type of data set: organism-based. Further details: dose 50 mg/kg, route oral. Particulars: in vivo.
Data set [6] concerns Rattus norvegicus. In words: Antihyperlipidemic activity in high fat diet-induced hyperlipidemic Sprague-Dawley rat model assessed as reduction of blood VLDL level at 50 mg/kg, po for 7 days (reference value: 26.2 +/- 1.20 mg/dl). Type of data set: functional.
The test system of data set [7] is Rattus norvegicus. Briefly: Antihyperlipidemic activity in high fat diet-induced hyperlipidemic Sprague-Dawley rat model assessed as reduction of blood LDL level at 50 mg/kg, po for 7 days (reference value: 51.8 +/- 2.03 mg/dl). It counts as functional.
Data set [8] has as its system Rattus norvegicus. Briefly: Antihyperlipidemic activity in high fat diet-induced hyperlipidemic Sprague-Dawley rat model assessed as increase of blood HDL level at 50 mg/kg, po for 7 days (reference value: 18.6 +/- 1.36 mg/dl). Type of data set: functional.
The test system of data set [9] is Rattus norvegicus. Briefly: Antihyperlipidemic activity in high fat diet-induced hyperlipidemic Sprague-Dawley rat model assessed as reduction of blood cholesterol level at 250 mg/kg, po for 7 days (reference value: 128.8 +/- 1.20 mg/dl). Type of data set: functional.
Data set [10] relates to Rattus norvegicus. Briefly: Antihyperlipidemic activity in high fat diet-induced hyperlipidemic Sprague-Dawley rat model assessed as reduction of body weight at 250 mg/kg, po for 7 days. Type of data set: functional.
For data set [11], the system named is Rattus norvegicus. Briefly: Antihyperlipidemic activity in high fat diet-induced hyperlipidemic Sprague-Dawley rat model assessed as reduction of body circumference at 250 mg/kg, po for 7 days. It counts as functional.
Data set [12] deals with Rattus norvegicus. Briefly: Antihyperlipidemic activity in high fat diet-induced hyperlipidemic Sprague-Dawley rat model assessed as increase of blood HDL level at 250 mg/kg, po for 7 days (reference value: 18.6 +/- 1.36 mg/dl). Type of data set: functional.
Data set [13] relates to Rattus norvegicus. In words: Toxicity in high fat diet-induced hyperlipidemic Sprague-Dawley rat model assessed as increase of locomotor activity at 250 mg/kg, po for 7 days measured for 5 mins. It counts as organism-based. Further details: dose 250 mg/kg, route oral. Particulars: in vivo.
The subject of data set [14] is Rattus norvegicus. In words: Antihyperlipidemic activity in high fat diet-induced hyperlipidemic Sprague-Dawley rat model assessed as reduction of blood LDL level at 250 mg/kg, po for 7 days (reference value: 51.8 +/- 2.03 mg/dl). Type of data set: functional.
For data set [15], the system named is Rattus norvegicus. Briefly: Antihyperlipidemic activity in high fat diet-induced hyperlipidemic Sprague-Dawley rat model assessed as reduction of blood triglyceride level at 250 mg/kg, po for 7 days (reference value: 142.4 +/- 1.53 mg/dl). Type of data set: functional.

On to `Nc1ccc(C(=O)CNc2nc(-c3ccc(OCC(=O)O)cc3)cs2)cc1`, for which the Activity in [1] is 110.4 mg/dL; in [2], 77.6 mg/dL; in data set [3], 237.333 g; in data set [4], 12 cm; in data set [5] it was “Toxic”; in data set [6] it was 26.2 mg/dL. Also, the Activity worked out at 36.8 mg/dL in data set [7] and 27 mg/dL in data set [8].
With `CC(=O)Nc1nc(-c2ccc(OCC(=O)O)cc2)cs1`, the Activity in data set [1] is 107.6 mg/dL; in data set [2] it was 104 mg/dL; in [3] it was 250.833 g; in data set [4] it was 12.516 cm; in data set [5] it was “Non-toxic”; in [6], 22.6 mg/dL. The figures for the Activity in [7] and in data set [8] were 51.4 mg/dL and 31.8 mg/dL, respectively.
As to `O=C(O)COc1ccc(-c2csc(NC(=O)c3ccccc3)n2)cc1`, the Activity in [1] is 114.6 mg/dL; in [2], 89.2 mg/dL; in [3], 239.666 g; in data set [4], 13.1 cm; in data set [5] it was “Toxic”; in data set [6] it was 25 mg/dL. For the same compound, the Activity worked out at 34.2 mg/dL in data set [7] and 28.4 mg/dL in [8].
`CCC(=O)Nc1nc(-c2ccc(OCC(=O)O)cc2)cs1`: the Activity was 103.6 mg/dL in [1]; 86.6 mg/dL in data set [2]; 224.166 g in [3]; 10.483 cm in [4]; “Toxic” in data set [5]; 21 mg/dL in data set [6]. For the same compound, the Activity in data set [7] is 33 mg/dL; in [8], 30.4 mg/dL.
Consider `O=C(O)COc1ccc(-c2csc(NC(=O)CCl)n2)cc1`, for which the Activity in data set [1] is 118.4 mg/dL; in data set [2], 92 mg/dL; in data set [3], 230.666 g; in data set [4], 9.5 cm; in data set [5], “Toxic”; in [6] it was 28 mg/dL. The Activity is 34.8 mg/dL in data set [7] and 34.4 mg/dL in [8].
For `O=C(O)COc1ccc(-c2csc(NCc3ccccc3)n2)cc1`, the Activity in data set [1] is 140.2 mg/dL; in data set [2], 122.2 mg/dL; in data set [3] it was 248.5 g; in data set [4], 13.066 cm; in data set [5], “Toxic”; in [6] it was 22.4 mg/dL. Moreover, the Activity in data set [7] came to 53.8 mg/dL; in data set [8] it was 20.2 mg/dL.
Take `O=C(O)COc1ccc(-c2csc(NCC(=O)c3ccc(Cl)cc3)n2)cc1`: the Activity is 136.6 mg/dL in data set [1]; 119.2 mg/dL in data set [2]; 220.5 g in data set [3]; 12.35 cm in data set [4]; “Toxic” in [5]; 27.2 mg/dL in data set [6]. In addition, the Activity in [7] came to 50 mg/dL; in data set [8], 18.6 mg/dL.
As to `O=C(O)COc1ccc(-c2csc(NCC(=O)c3ccc([N+](=O)[O-])cc3)n2)cc1`, the Activity in [1] was 122.8 mg/dL; in data set [2], 106.8 mg/dL; in data set [3], 258.166 g; in data set [4] it was 12.85 cm; in data set [5], “Non-toxic”; in data set [6], 20.2 mg/dL. Further, the Activity in [7] amounted to 43.2 mg/dL; in data set [8], 24.6 mg/dL.
For the compound `CC(C)OC(=O)C(C)(C)Oc1ccc(C(=O)c2ccc(Cl)cc2)cc1` [FENOFIBRATE], the Activity was 83.2 mg/dL in data set [9]; 229.666 g in data set [10]; 9.5 cm in data set [11]; 28.4 mg/dL in data set [12]; “Toxic” in data set [13]; 37.2 mg/dL in data set [14]. For the same compound, the Activity in data set [15] was 91.6 mg/dL.
